Measured values from patent publication US20220080053A1, “USE OF ANTI-CEACAM5 IMMUNOCONJUGATES FOR TREATING LUNG CANCER” (SANOFI, priority 2019, published 2022).

B1: Mab2K52R: variant of antibody MAb2 generated by introducing a K52R substitution in the CDR2-L (antibody, V domains shown)
VH: EVQLQESGGVLVKPGGSLKLSCAASGFVFSSYDMSWVRQTPEKRLEWVAYISSGGGITYFPDTVQGRFTVSRDNAKNTLYLQMNSLKSEDTAIYYCAAHYFGSSGPFAYWGQGTLVTVSA
VL: DIQMTQSPASLSASVGETVTITCRASENIFSYLAWYQQKQGKSPQLLVYNTRTLAEGVPSRFSGSGSGTQFSLKINSLQPEDFGSYYCQHHYGTPFTFGSGTKLEIK

Experiments:
[1] = test system: other CEACAM family members; conditions: cited from earlier work
[2] = test system: Macaca fascicularis CEACAM5; conditions: cited from earlier work
human CEACAM5 = biological target: T1, human CEACAM5 (Homo sapiens, UniProt P06731); assay: Affinity for human CEACAM5; format: binding
T1 construct: soluble recombinant CEACAM5 as capture antigen
T1 sequence (P06731 35-685 limits assumed): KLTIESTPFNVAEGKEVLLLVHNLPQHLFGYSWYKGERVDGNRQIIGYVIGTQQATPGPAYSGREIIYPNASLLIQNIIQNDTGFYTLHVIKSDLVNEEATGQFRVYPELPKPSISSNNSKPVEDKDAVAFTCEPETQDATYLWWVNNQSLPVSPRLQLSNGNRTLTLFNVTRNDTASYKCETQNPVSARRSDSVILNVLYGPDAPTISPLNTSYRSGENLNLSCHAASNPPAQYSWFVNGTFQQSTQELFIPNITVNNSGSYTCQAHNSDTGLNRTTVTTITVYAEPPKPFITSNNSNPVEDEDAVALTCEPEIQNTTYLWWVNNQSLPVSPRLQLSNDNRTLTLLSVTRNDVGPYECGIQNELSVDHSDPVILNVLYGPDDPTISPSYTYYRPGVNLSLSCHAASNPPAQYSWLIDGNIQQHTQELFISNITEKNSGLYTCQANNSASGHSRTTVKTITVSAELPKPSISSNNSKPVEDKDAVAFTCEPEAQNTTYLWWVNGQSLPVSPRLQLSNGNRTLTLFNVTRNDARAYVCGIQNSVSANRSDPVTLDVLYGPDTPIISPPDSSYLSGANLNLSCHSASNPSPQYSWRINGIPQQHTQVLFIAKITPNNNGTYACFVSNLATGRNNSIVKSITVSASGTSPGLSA
Source text: (§1) In an attempt to produce new antibodies against CEACAM5 surface protein with optimal characteristics for therapeutic purposes, mice were immunized with recombinant proteins and with tumour cells. They have screened hundreds of hybridoma using ELISA on several recombinant proteins of the CEACAM family, and flow cytometry with relevant cell lines, in order to select only immunoglobulins (IgGs) with the advantageous profile. Unexpectedly, they were able to select hybridoma clones and produce corresponding mature IgGs that comprise all of the desired features. […] In a cellular context, these antibodies display high affinity for tumor cells (in the nano-molar range). […] It can be experimentally assessed by a variety of known methods, such as measuring association and dissociation rates with surface plasmon resonance or measuring the EC50 (or apparent KD) in an immunochemical assay (ELISA, FACS). In these assays, the EC50 is the concentration of the antibody which induces a response halfway between the baseline and maximum after some specified exposure time on a defined concentration of antigen by ELISA (enzyme-linked immuno-sorbent assay) or cell expressing the antigen by FACS (Fluorescence Activated Cell Sorting). Affinity for human CEACAM5 or for Macaca fascicularis CEACAM5 may be determined as the EC50 value in an ELISA using soluble recombinant CEACAM5 as capture antigen.

[3] = test system: Macaca fascicularis CEACAM5; assay: Affinity for Macaca fascicularis CEACAM5; format: binding
Source text: as §1

Sequence of Macaca fascicularis CEACAM5 (as listed by the source): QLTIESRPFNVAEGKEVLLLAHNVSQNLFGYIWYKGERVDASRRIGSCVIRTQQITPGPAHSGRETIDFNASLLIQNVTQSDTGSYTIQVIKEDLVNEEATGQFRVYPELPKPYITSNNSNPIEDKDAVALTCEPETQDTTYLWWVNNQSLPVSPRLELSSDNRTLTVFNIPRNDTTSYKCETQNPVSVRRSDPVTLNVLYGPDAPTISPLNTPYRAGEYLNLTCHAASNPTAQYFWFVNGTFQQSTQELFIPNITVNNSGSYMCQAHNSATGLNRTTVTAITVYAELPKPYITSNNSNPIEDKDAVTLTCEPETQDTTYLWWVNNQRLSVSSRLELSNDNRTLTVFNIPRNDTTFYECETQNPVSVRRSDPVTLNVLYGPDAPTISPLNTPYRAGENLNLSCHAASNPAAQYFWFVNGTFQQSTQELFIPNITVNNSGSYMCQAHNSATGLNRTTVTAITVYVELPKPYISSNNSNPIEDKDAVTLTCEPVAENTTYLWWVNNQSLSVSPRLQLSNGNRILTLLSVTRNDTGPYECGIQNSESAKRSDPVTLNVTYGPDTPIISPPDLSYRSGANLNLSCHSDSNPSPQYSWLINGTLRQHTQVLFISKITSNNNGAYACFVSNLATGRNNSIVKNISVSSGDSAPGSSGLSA

| Molecule | binding to related antigens / other CEACAM family members [1] | cross-reaction with CEACAM5 from Macaca fascicularis [2] | affinity for human CEACAM5 compared with MAb2 (human CEACAM5) | affinity for Macaca fascicularis CEACAM5 compared with MAb2 [3] |
| --- | --- | --- | --- | --- |
| labetuzumab: Immunomedics anti-human CEACAM5 antibody used in clinical trials | not to bind | not cross-reacting |  |  |
| B1 |  |  | essentially the same affinity | essentially the same affinity |
